Laboratory results published in US20040063692A1, “Bazedoxifene treatment regimens” (Wyeth, priority 2002, published 2004).

Key:
Assay type in all cases: in vivo, Female Sprague Dawley CD rats
[1] = tested on: ovariectomized (ovx) rats; assay: Bone mineral density (BMD) in ovariectomized rats, daily or once weekly dosing; details: measured five weeks after initiation of treatment
Source text: (§1) The ability of bazedoxifene to be successfully administered on an extended dosing regimen was established in an in vivo standard pharmacological test procedure which evaluated bone mineral density (BMD), change in body weight, and uterine weight using bazedoxifene acetate as a representative compound of this invention. The following briefly describes the procedure used and results obtained in the standard pharmacological test procedure.
(§2) Female Sprague Dawley CD rats, ovariectomized (ovx) or sham ovx, were obtained 1 day after surgery from Taconic Farm (weight range 240-275 g). They were housed 3 or 4 rats/cage in a room on a 14/10 (light/dark) schedule and provided with food (Purina 500 rat chow) and water ad libitum. Treatment for all studies began 1 day after the animals arrival and dosed either daily or once weekly as indicated for 6 weeks. A group of age matched sham operated rats not receiving any treatment served as an intact, estrogen replete control group for each study. All treatments were prepared in 1% tween 80 in normal saline at defined concentrations so that the treatment volume was 0.1 mL/100 g body weight.
Five weeks after the initiation of treatment and one week prior to the termination of the study, each rat was evaluated for bone mineral density (BMD). The BMD's of the proximal tibiae (PT) and fourth lumbar vertabrae (L4) were measured in anesthetized rats using a dual energy X-ray absorptiometer (Eclipse XR-26, Norland Corp. Ft. Atkins, Wis.). The dual energy X-ray absorptiometer (DXA) measurements for each rat were performed as follows: Fifteen minutes prior to DXA measurements, the rat was anesthetized with an intraperitoneal injection of 100 mg/kg ketamine (Bristol Laboratories, Syracuse, N.Y.) and 0.75 mg/kg acepromazine (Aveco, Ft.Dodge, Iowa). The rat was placed on an acrylic table under the DXA scanner perpendicular to its path; the limbs were extended and secured with paper tape to the surface of the table. A preliminary scan was performed at a scan speed of 50 mm/second with a scan resolution of 1.5 mm×1.5 mm to determine the region of interest in PT and L4. Small subject software was employed at a scan speed of 10 mm/second with resolution of 0.5 mm X 0.5 mm for final BMD measurements. The software allows the operator to define a 1.5 cm wide area to cover the total length of L4. The BMDs for respective sites were computed by the software as a function of the attenuation of the dual beam (46.8 KeV and 80 KeV) X-ray generated by the source underneath the subject and the detector travelling along the defined area above the subject. The data for BMD values (expressed in g/cm2) and individual scans were stored for statistical analysis.

[2] = Change in body weight in ovariectomized rats, daily or once weekly dosing; details: ovx rats, 6 weeks
Source text: as §1, §2
(§3) One week after BMD evaluation the rats were euthanized by carbon dioxide suffocation. The uteri were removed and the weights taken. The following table summarizes the results that were obtained. The sham group was not ovariectomized; all other groups were ovariectomized. In the table below, bazedoxifene acetate is abbreviated as BZA.

[3] = tested on: ovariectomized (ovx) rats; assay: Uterine weight in ovariectomized rats, daily or once weekly dosing; details: 6 weeks
Source text: as §1, §2, §3

Uterine Weight, Mean ± SEM ([3]; 0.3 mg/kg 1×/week): 131.3 ± 7.0 mg
Uterine Weight, Mean ± SEM ([3]; 0.3 mg/kg 7×/week): 140.3 ± 6.3 mg
Uterine Weight, Mean ± SEM ([3]; 1.0 mg/kg 1×/week): 149.9 ± 5.0 mg
Uterine Weight, Mean ± SEM ([3]; 3.0 mg/kg 1×/week): 127.3 ± 10.9 mg
Compound: Cc1c(-c2ccc(O)cc2)n(Cc2ccc(OCCN3CCCCCC3)cc2)c2ccc(O)cc12 [BZA, 1-[4-(2-azepan-1-yl-ethoxy)-benzyl]-2-(4-hydroxy-phenyl)-3-methyl-1H-indol-5-ol]
Total BMD, Mean ± SEM ([1]; 0.3 mg/kg 1×/week): 556.56 ± 20.5 mg/mL
Trabecular BMD, Mean ± SEM ([1]; 0.3 mg/kg 1×/week): 361.93 ± 34.5 mg/mL
Total BMD, Mean ± SEM ([1]; 0.3 mg/kg 7×/week): 604.33 ± 18.6 mg/mL
Trabecular BMD, Mean ± SEM ([1]; 0.3 mg/kg 7×/week): 425.90 ± 26.3 mg/mL
Total BMD, Mean ± SEM ([1]; 1.0 mg/kg 1×/week): 562.90 ± 7.7 mg/mL
Trabecular BMD, Mean ± SEM ([1]; 1.0 mg/kg 1×/week): 353.03 ± 15.7 mg/mL
Total BMD, Mean ± SEM ([1]; 3.0 mg/kg 1×/week): 589.36 ± 10.9 mg/mL
Trabecular BMD, Mean ± SEM ([1]; 3.0 mg/kg 1×/week): 427.00 ± 10.0 mg/mL
Δ Body Weight, Mean ± SEM ([2]; 0.3 mg/kg 1×/week): 80.5 ± 2.0 g
Δ Body Weight, Mean ± SEM ([2]; 0.3 mg/kg 7×/week): 60 ± 5.6 g
Δ Body Weight, Mean ± SEM ([2]; 1.0 mg/kg 1×/week): 71.3 ± 4.8 g
Δ Body Weight, Mean ± SEM ([2]; 3.0 mg/kg 1×/week): 59.3 ± 7.0 g
